# Test results taken from patent US20190365927A1, “COMPOSITION FOR PHOTODYNAMIC THERAPY USING GENE EXPRESSING FLUORESCENT PROTEIN AND PHOTOSENSITIZER, AND PHOTODYNAMIC THERAPY METHOD USING SAME” (priority 2017, published 2019).
# What was measured:
# eGFP+ and eGFP− cells = experiment: Cytotoxicity with Ce6 and 650-nm red laser light, eGFP+ versus eGFP− cells; assay type: cell-based; settings: FIG. 5
# [1] = test system: GFP+ 4T1 cells, RFP+ 4T1 cells and control 4T1 cells; experiment: In vitro PDT of GFP+ and RFP+ cells with photosensitizer and red, blue or yellow light, MTT analysis; assay type: cell-based, mouse; settings: FIG. 14; for cytotoxicity in control, RFP+ and GFP+ cells: 1 μM photosensitizer
# Description: The cytotoxicity of RFP+ or GFP+ cells was measured by MTT analysis in the presence of Ce6 (Chlorine (e6)), rose bengal or tin ethyl etiopurpurin as photosensitizer after red light, blue light or yellow light irradiation. The specific experimental procedure is as follows.
# Specifically, Ce6 (santacruz, sc-263067), rose bengal (Sigma Aldrich, 330000-5G) or tin ethyl etiopurpurin as a photosensitizer was diluted with RPMI-1640 medium containing 10% FBS. Thus, 1 μM concentration of Ce6 (Chlorine (e6)), rose bengal or tin ethyl etiopurpurin was prepared. Further, GFP+ 4T1 cells selected in the 1-4 and RFP+ 4T1 cells selected in the 1-3 were pre-cultured at a density of 2×10^4 cells/well in 96-well, black, and clear bottom plates. The pre-cultured cells were then incubated with Ce6, rose bengal or tin ethyl etiopurpurin for 4 h. 4T1 cells without RFP or GFP introduced thereto were used as controls. After 4 hours, the cells were washed three times with PBS buffer. Then, red laser light (650 nm; radiation dose rate=2 J/cm^2) or blue laser light (488 nm; radiation dose rate=2 J/cm^2) or yellow laser light (570 nm, radiation dose rate=2 J/cm^2) was irradiated thereto for 5 seconds. After the irradiation, the fresh culture medium was added to the wells. Then, the cells were cultured again for 24 hours. MTT analysis was then performed.
# [2] = test system: GFP+ A549, RFP+ A549 and YFP+ A549 cells; experiment: In vitro PDT of GFP+, RFP+ and YFP+ cells with photosensitizer, MTT analysis; assay type: cell-based, human; settings: 1 μM, yellow laser light (570 nm), FIG. 21, 22
# Description: Photo inducing death of GFP+, RFP+, and YFP+ cells via the photosensitizer was measured by MTT analysis. The specific experimental procedure is as follows.
# To investigate photo inducing death of GFP+ cells, RFP+ cells, and YFP+ cells via the photosensitizer, rose bengal, hematoporphyrin (Sigma-aldrich #5518) or 5-ALA (5-Aminolevulinic acid hydrochloric, Sigma-aldrich # A3785) was diluted with RPMI medium containing 10% FBS. 1 μM concentration of rose bengal, hematoporphyrin or 5-ALA was prepared. Further, GFP+ A549 cells, RFP+ A549 cells and YFP+ A549 cells selected from the 1-4 were pre-incubated at a density of 5×10^3 cells per well on 96-well, black, and clear bottom plates. A549 cells with pcDNA 3.1 vector injected thereto were cultured as control. Then, each of the photosensitizers as produced was applied or not applied to the preincubated cells in the preincubated cells which in turn were cultured for 4 hours. After 4 hours, the cells were washed three times with PBS buffer. Irradiation or non-irradiation of blue laser light (488 nm; radiation dose rate=2 J/cm^2) or yellow laser light (570 nm; radiation dose rate=2 J/cm^2) thereto was carried out for 5 seconds. After irradiation or non-irradiation, a fresh culture medium was added to the wells. The cells were cultured again for 24 hours. MTT analysis was then performed.
# [3] = test system: GFP+ 4T1 cells and RFP+ 4T1 cells; experiment: Experiment using artificial skin, MTT assay; assay type: cell-based, mouse; settings: presence as well as absence of artificial skin (1 mm), 1 μM, yellow laser light, FIG. 17
# Description: Actual skin condition was applied. photosensitizer was applied to GFP+ cell and RFP+ cell which in turn was irradiated with light. Then, cell death was measured by MTT assay. The specific experimental procedure is as follows.
# Specifically, rose bengal and tin ethyl etiopurpurin at 1 μM concentration were produced in the same method as described in the 2-4. Then, the tin ethyl etiopurpurin was applied to RFP+ 4T1 cells selected from the 1-3. The rose bengal was applied to GFP+ 4T1 cells selected from 1-4. Then, the cells were cultured for 4 hours and washed three times with PBS buffer. Next, as shown in the schematic diagram of FIG. 16, an artificial skin tissue (AST, thickness 1 mm) (Geistlich Mucograft, Geistlich Pharma AG) was placed between the light source and the cell. Thus, the actual skin condition was established. Then, blue laser light (473 nm; radiation dose rate=2 J/cm^2) was applied to GFP+ cells for 5 seconds. Yellow laser light (580 nm; radiation dose rate=2 J/cm^2) were irradiated to RFP+ cells for 5 seconds. In 2 hours of the irradiation, the cells were washed twice with PBS buffer. MTT analysis was carried out in the same method as described in the Experimental Example 2-2. […]
# RFP+ and RFP− 4T1 cells [4] = experiment: In vitro PDT with tin ethyl etiopurpurin and yellow light over irradiation time, LDH and MTT analysis; assay type: cell-based, mouse; settings: 1 μM, yellow laser light, in 2 seconds after light irradiation, FIG. 11, 12
# Description: The yellow light was irradiated over time, and then photo inducing death of RFP+ and RFP− cells was measured by MTT analysis under the presence of tin ethyl etiopurpurin. The specific experimental procedure is as follows.
# Specifically, tin ethyl etiopurpurin (Miravant Medical Technology Inc, USA) was diluted with RPMI-1640 medium containing 10% FBS to produce 1 μM concentration of tin ethyl etiopurpurin. Further, the RFP− or RFP+ 4T1 cells selected from the above 1-3 were pre-incubated in a 24-well plate at a density of 5×10^4 cells per well. The pre-cultured cells were then incubated with tin ethyl etiopurpurin for 4 h. After 4 hours, the cells were washed three times with PBS buffer. Then, the yellow laser light (570 nm; radiation dose rate=2 J/cm^2) was irradiated thereto for 0, 5 and 10 seconds. LDH analysis was then performed using the LDH Cytotoxicity Assay kit (Cayman Chemical Company, USA) according to the manufacturer's procedure. […] The absorbance was measured at 490 nm using a plate reader.
# Further, the RFP− or RFP+ 4T1 cells selected from the 1-3 using the same method as described above were subjected to the yellow laser light (570 nm; radiation dose rate=2J/cm^2) for 0, 1, 2, 5, 7, or 10 secs. […] The absorbance of the reaction solution was measured at 570 nm. Cell viability was calculated by the following equation: […]
# RFP+ and RFP− 4T1 cells [5] = experiment: In vitro PDT with varying tin ethyl etiopurpurin concentration, MTT analysis; assay type: cell-based, mouse; settings: 0, 0.5, 1 and 2 μM, yellow laser light 5 seconds, FIG. 13
# Description: After irradiation with yellow light, the photo inducing death of RFP+ and RFP− cells was measured by MTT analysis under the conditions of varying tin ethyl etiopurpurin concentrations. The specific experimental procedure is as follows.
# Specifically, tin ethyl etiopurpurin was produced at 0, 0.5, 1 and 2 μM concentrations in the same method as described above. Then, the cells were cultured for 4 hours with RFP− or RFP+ 4T1 cells selected from the 1-3. MTT analysis was performed after irradiation of yellow laser light (570 nm; radiation dose rate=2 J/cm^2) thereto for 5 seconds.
compound,measurement,setting,value
chlorine e6 [Ce6],cytotoxicity for eGFP+ versus eGFP− cells,eGFP+ and eGFP− cells,not different from each other
same,"cytotoxicity in control, RFP+ and GFP+ cells",[1]; red laser light (650 nm),"control, RFP+, and GFP+ cells showed cytotoxicity"
"Cl.NCC(=O)CCC(=O)O [5-ALA, 5-Aminolevulinic acid hydrochloride]",cell death effect in YFP+ cell and RFP+ cell,[2],significant cell death effect
same,cell death effect of RFP+ cell,[2],remarkable cell death effect
CCOC(=O)C1=Cc2c3nc(cc4nc(cc5[n-]c(cc6[n-]c2c(C)c6CC)c(C)c5CC)C(C)=C4CC)[C@@H](C)[C@]13CC.[Cl-].[Cl-].[Sn] (racemic) [tin ethyl etiopurpurin],cell death level of RFP+ cells versus GFP+ cells treated with rose bengal and blue laser light,[3],the cell death level was higher
same,"RFP+ cell death compared to RFP− cell, by irradiation duration",RFP+ and RFP− 4T1 cells [4],RFP+ cell death increased considerably
same,"cytotoxicity in control, RFP+ and GFP+ cells",[1]; yellow laser light,cytotoxicity was seen only in RFP+ cells
same,degree of cytotoxicity in RFP+ cells versus GFP+ cells treated with rose bengal and blue laser light,"[1]; 1 μM, yellow laser light",the degree of cytotoxicity was higher
same,RFP+ cell death by treatment concentration,RFP+ and RFP− 4T1 cells [5],increased remarkably
